Assay results taken from publication PMC9841592 (ACS Medicinal Chemistry Letters, 2022).
“Also recorded” adds a separate entry of the source. Where two headings read alike, the source gives them in different places. Marks after values point to notes of the source that are not given here.

Experiments:
hERG [1] = molecular target: T1, hERG (Homo sapiens, UniProt Q12809); conditions: for hERG ion channel inhibition (in words): hERG inhibition binding assay
Human SST2 = Human SST2 (Homo sapiens, UniProt P30874); format: cell-based
Chain of Human SST2 (P30874 whole entry): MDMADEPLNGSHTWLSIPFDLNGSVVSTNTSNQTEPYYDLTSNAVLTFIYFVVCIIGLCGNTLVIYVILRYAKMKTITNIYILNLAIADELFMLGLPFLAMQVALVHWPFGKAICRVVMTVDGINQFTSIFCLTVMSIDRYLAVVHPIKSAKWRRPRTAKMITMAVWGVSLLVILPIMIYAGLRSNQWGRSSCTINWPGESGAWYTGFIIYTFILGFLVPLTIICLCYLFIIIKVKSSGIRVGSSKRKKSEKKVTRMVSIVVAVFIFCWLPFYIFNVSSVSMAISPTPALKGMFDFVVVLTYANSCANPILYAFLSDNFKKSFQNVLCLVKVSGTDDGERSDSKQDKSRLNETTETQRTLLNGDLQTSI

hERG [2] = molecular target: T1, hERG; experiment: Patch-clamp hERG assay; format: cell-based
plasma IGF-1 [3] = experiment: Plasma IGF-1 after repeated daily oral dosing in rats; format: in vivo, rat; conditions: male SD rats
plasma IGF-1 [4] = experiment: Plasma IGF-1 after repeated daily oral dosing in dogs; format: in vivo, dog; conditions: p < 0.05
GH secretion and IGF-1 = conditions: cited from earlier work; for effect on IGF-1 levels / effect on GHRH-stimulated GH secretion: Phase 1, healthy volunteers; for effect on IGF-1 levels: over several days
IGF-1 = conditions: Phase 2, acromegaly patients switched to oral paltusotine; cited from earlier work
[5] = healthy human volunteers, Phase 1 study; cited from earlier work

T1 sequence (Q12809 whole entry): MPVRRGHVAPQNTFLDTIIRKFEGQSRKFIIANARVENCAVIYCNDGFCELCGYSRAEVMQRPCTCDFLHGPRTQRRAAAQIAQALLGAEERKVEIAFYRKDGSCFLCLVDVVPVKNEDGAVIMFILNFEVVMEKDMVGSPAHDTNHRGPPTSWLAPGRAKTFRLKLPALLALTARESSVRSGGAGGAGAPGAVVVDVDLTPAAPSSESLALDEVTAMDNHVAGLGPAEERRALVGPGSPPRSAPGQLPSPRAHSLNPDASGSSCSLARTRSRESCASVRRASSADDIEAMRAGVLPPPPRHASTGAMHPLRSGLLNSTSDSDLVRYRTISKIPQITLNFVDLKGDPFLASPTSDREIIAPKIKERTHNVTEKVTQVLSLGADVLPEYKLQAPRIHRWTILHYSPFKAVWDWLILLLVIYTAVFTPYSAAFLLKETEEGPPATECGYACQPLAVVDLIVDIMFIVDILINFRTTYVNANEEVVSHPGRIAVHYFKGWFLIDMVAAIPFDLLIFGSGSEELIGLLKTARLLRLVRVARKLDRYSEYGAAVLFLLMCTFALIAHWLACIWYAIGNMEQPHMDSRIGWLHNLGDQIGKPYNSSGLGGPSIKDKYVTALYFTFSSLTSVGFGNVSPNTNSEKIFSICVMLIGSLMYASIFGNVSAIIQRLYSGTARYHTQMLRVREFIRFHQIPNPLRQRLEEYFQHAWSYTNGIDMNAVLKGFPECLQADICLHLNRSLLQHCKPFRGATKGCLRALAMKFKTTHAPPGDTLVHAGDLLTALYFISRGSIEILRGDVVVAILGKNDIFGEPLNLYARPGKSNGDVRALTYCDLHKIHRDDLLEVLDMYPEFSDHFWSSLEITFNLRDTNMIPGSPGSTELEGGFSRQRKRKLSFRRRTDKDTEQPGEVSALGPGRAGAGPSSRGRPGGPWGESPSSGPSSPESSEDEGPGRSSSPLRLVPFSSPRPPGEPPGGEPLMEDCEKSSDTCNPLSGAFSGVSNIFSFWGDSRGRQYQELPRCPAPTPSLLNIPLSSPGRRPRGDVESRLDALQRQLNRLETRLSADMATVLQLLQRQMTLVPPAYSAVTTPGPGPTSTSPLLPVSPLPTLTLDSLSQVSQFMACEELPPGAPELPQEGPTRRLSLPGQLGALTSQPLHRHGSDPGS

SMILES | hERG ion channel inhibition (in words) (hERG [1]) | selectivity for SST2 over other SST receptor subtypes (Human SST2) | IC50 (hERG [2]) | suppression of plasma IGF-1 relative to vehicle (plasma IGF-1 [3]; 10 mg/kg/day po for 14 days, days 2, 10 and 14, p < 0.05) | suppression of plasma IGF-1 relative to vehicle (plasma IGF-1 [3]; 30 mg/kg/day po for 14 days, all days measured, p < 0.05) | suppression of plasma IGF-1 relative to vehicle, day 1 (plasma IGF-1 [4]; male and female beagle dogs, 150 mg/kg/day po) | suppression of plasma IGF-1 compared to vehicle, day 7 (plasma IGF-1 [4]; male and female beagle dogs, 6, 30 and 150 mg/kg/day po for 7 days) | hERG pIC50±SEM (hERG [1]; hERG binding assay) | effect on IGF-1 levels (GH secretion and IGF-1; listed as Paltusotine) | effect on IGF-1 levels (GH secretion and IGF-1; listed as paltusotine) | effect on GHRH-stimulated GH secretion (GH secretion and IGF-1; listed as Paltusotine) | effect on GHRH-stimulated GH secretion (GH secretion and IGF-1; listed as paltusotine) | tolerability (GH secretion and IGF-1; double-blind placebo-controlled Phase 1 trial, healthy volunteers) | effect on IGF-1 levels after switch from injected depots (IGF-1) | oral bioavailability [5]
N#Cc1cc(F)cc(-c2ccc3ncc(-c4cc(F)cc(F)c4)c(N4CCC(N)CC4)c3c2)c1O [Compound 24] | weak inhibitors | – | – | – | – | – | – | – | – | – | – | – | – | – | –
N#Cc1cccc(-c2ccc3ncc(-c4cccc(F)c4)c(N4CCC(N)CC4)c3c2)c1O [Compound 25] | weak inhibitors | – | – | – | – | – | – | – | – | – | – | – | – | – | –
N#Cc1cccc(-c2ccc3ncc(-c4cc(F)cc(F)c4)c(N4CCC(N)CC4)c3c2)c1O [Compound 22, 3-[4-(4-aminopiperidin-1-yl)-3-(3,5-difluorophenyl)quinolin-6-yl]-2-hydroxybenzonitrile] | weak inhibitors; also recorded: no direct inhibition | > 1000 fold | 9.9 µM | significantly suppressed | significantly suppressed | significantly suppressed | significantly suppressed | <5 ^c | dose-dependent reduction | lowered IGF-1 levels | dose-dependent reduction | acutely suppressed | good tolerability | maintain IGF-1 levels | ~70%
